From patent publication US20010000177A1, “Novel class of thiomorpholino substituted thiazoles” (priority 1999, published 2001)
≈ marks a conversion by molar mass, not a printed value.

Columns and labels:
Type in all cases: cell-based
[1] = system: Candida and Cryptococcus strains (organism not given); test: Broth microdilution antifungal activity, Table II first MIC/MCC column pair; conditions: for MIC = Minimum inhibitory concentration (50% Inhibition) / MCC = Minimum cytolytic concentration: first column pair of Table II; for MIC = Minimum inhibitory concentration (50% Inhibition): YNB broth pH 7.0; for MCC = Minimum cytolytic concentration: subculture on SDA plate
Method: (§1) Organisms: Three strains of Candida (Candida parpsilosis, Candida tropicalis, Candida albicans-ATCC 36082) as well as Cryptococcus neoformans were used for the initial testing. […] All clinical strains used in this study were blood culture isolates from the Clinical Microbiology Laboratory of Harbor-UCLA Medical Center, Torrance, Calif. The organisms were maintained on Sabourahd Dextrose Agar slants at 4° C. For experimentation, singlet suspensions of each organism were prepared by growing the yeast overnight at 27° C. on a rotating drum in yeast-nitrogen base broth (YNB) with amino acids (Difco, Detroit, Mich.), pH 7.0 with 0.05M morpholinepropanesulfonic acid (MOPS). The suspension was then centrifuged and washed twice with 0.85% NaCl. This was followed by sonication of the washed cell suspension for 4s (Branson Sonifier, model 350, Danbury, Conn.). The singlet blastospores were counted in a hemocytometer and adjusted to the desired concentration in 0.85% NaCl.
(§2) Antifungal Activity: The antifungal activity of the compounds and Fluconazole against the Candida and Cryptococcus strains were determined using a modification of a broth microdilution technique. Test compounds were diluted in DMSO to a 1.0 mg/ml ratio then diluted to 64 μg/ml in YNB broth, pH 7.0 with MOPS (Fluconazole was used as the control). This was to provide a working solution of each compound. Using a 96-well plate, wells 1 and 3 through 12 were prepared with YNB broth, […] dilutions of the compound solution were made in wells 2 through 11 (concentration ranges were 64 to 0.125 μg/ml). Well one served as a sterility control and blank for the spectrophotometric assays. Well twelve served as a growth control. The microtiter plates were inoculated with 10 ul in each of well 2 through 11 (final inoculum size was 10^4 organisms/ml). Inoculated plates were incubated for 48 hrs., at 35° C. The MIC values were determined spectrophotometrically by measuring the absorbance at 420 nm (Automatic Microplate Reader, DuPont Instruments, Wilmington, Del.) after agitation of the plates for 2 min with a vortex-mixer (Vorte-Genie 2 Mixer, Scientific Industries, Inc., Bolemia, N.Y.). […] With the turbidity assay this was defined as the lowest drug concentration at which turbidity in the well was <50% of the control (IC50) Minimal Cytolytic Concentrations (MCC) were determined by subculturing all wells from the 96-well plate onto a Sabourahd Dextrose Agar (SDA) plate and incubated for 1 to 2 days at 35° C. and the viability was checked.

[2] = system: Candida and Cryptococcus strains (organism not given); test: Broth microdilution antifungal activity, Table II fourth MIC/MCC column pair; conditions: for MIC = Minimum inhibitory concentration (50% Inhibition) / MCC = Minimum cytolytic concentration: fourth column pair of Table II; for MIC = Minimum inhibitory concentration (50% Inhibition): YNB broth pH 7.0; for MCC = Minimum cytolytic concentration: subculture on SDA plate
Method: as §1, §2

[3] = system: Candida and Cryptococcus strains (organism not given); test: Broth microdilution antifungal activity, Table II third MIC/MCC column pair; conditions: for MIC = Minimum inhibitory concentration (50% Inhibition): 48 hrs, 35° C., YNB broth pH 7.0; for MCC = Minimum cytolytic concentration: subculture on SDA plate
Method: (§3) Organisms: Three strains of Candida (Candida parpsilosis, Candida tropicalis, Candida albicans-ATCC 36082) as well as Cryptococcus neoformans were used for the initial testing. Active compounds were then tested against fluconazole resistant Candida albicans, Candida krusei, Torulopsis glabrata, and Cryptococcus neoformans along with Sporothrix shenkii and Aspergillus flavus in the secondary round of testing. All clinical strains used in this study were blood culture isolates from the Clinical Microbiology Laboratory of Harbor-UCLA Medical Center, Torrance, Calif. The organisms were maintained on Sabourahd Dextrose Agar slants at 4° C. For experimentation, singlet suspensions of each organism were prepared by growing the yeast overnight at 27° C. on a rotating drum in yeast-nitrogen base broth (YNB) with amino acids (Difco, Detroit, Mich.), pH 7.0 with 0.05M morpholinepropanesulfonic acid (MOPS). The suspension was then centrifuged and washed twice with 0.85% NaCl. This was followed by sonication of the washed cell suspension for 4s (Branson Sonifier, model 350, Danbury, Conn.). The singlet blastospores were counted in a hemocytometer and adjusted to the desired concentration in 0.85% NaCl.
as §2

[4] = system: Candida and Cryptococcus strains (organism not given); test: Broth microdilution antifungal activity, Table II second MIC/MCC column pair; conditions: for MIC = Minimum inhibitory concentration (50% Inhibition) / MCC = Minimum cytolytic concentration: second column pair of Table II; for MIC = Minimum inhibitory concentration (50% Inhibition): YNB broth pH 7.0; for MCC = Minimum cytolytic concentration: subculture on SDA plate
Method: as §3, §2

Structure (SMILES)	MIC = Minimum inhibitory concentration (50% Inhibition) ([1]; 48 hrs, 35° C.)	MCC = Minimum cytolytic concentration [1]	MIC = Minimum inhibitory concentration (50% Inhibition) ([2]; 48 hrs, 35° C.)	MCC = Minimum cytolytic concentration [2]	MIC = Minimum inhibitory concentration (50% Inhibition) [3]	MCC = Minimum cytolytic concentration [3]	MIC = Minimum inhibitory concentration (50% Inhibition) ([4]; 48 hrs, 35° C.)	MCC = Minimum cytolytic concentration [4]	MIC ([1]; Candida, 48 h, pH 7, first column pair of Table II, 48 hrs, 35° C., YNB broth pH 7.0, read-out: MIC = Minimum inhibitory concentration (50% Inhibition))	MIC ([2]; Candida, 48 h, pH 7, fourth column pair of Table II, 48 hrs, 35° C., YNB broth pH 7.0, read-out: MIC = Minimum inhibitory concentration (50% Inhibition))	MIC ([4]; Candida, 48 h, pH 7, second column pair of Table II, 48 hrs, 35° C., YNB broth pH 7.0, read-out: MIC = Minimum inhibitory concentration (50% Inhibition))
CN(C)Cc1ccc(-c2csc(-c3ccc([N+](=O)[O-])cc3)n2)cc1 [Example 1x, 2-(4′-nitrophenyl)-4-[4″-(dimethylaminomethyl)phenyl]thiazole]	1 µg/mL (≈ 2.95 µM)	2 µg/mL	2 µg/mL (≈ 5.89 µM)	2 µg/mL	1 µg/mL (≈ 2.95 µM)	2 µg/mL	1 µg/mL (≈ 2.95 µM)	2 µg/mL	–	–	–
CCCN(C)Cc1ccc(-c2csc(-c3ccc(C#N)cc3)n2)cc1 [Example 6e, 2-(4′-cyanophenyl)-4-[4″-(N-methyl-N-propylaminomethyl)phenyl]-thiazole]	4 µg/mL (≈ 11.5 µM)	4 µg/mL	0.5 µg/mL (≈ 1.44 µM)	1 µg/mL	2 µg/mL (≈ 5.76 µM)	16 µg/mL	2 µg/mL (≈ 5.76 µM)	4 µg/mL	–	–	–
CCCN(C)Cc1ccc(-c2csc(-c3ccc(C(F)(F)F)cc3F)n2)cc1 [Example 6f, 2-(2′-fluoro-4′-trifluoromethylphenyl)-4-[4″-(N-methyl-N-propylamino-methyl)phenyl]thiazole]	8 µg/mL (≈ 19.6 µM)	16 µg/mL	4 µg/mL (≈ 9.79 µM)	8 µg/mL	2 µg/mL (≈ 4.9 µM)	8 µg/mL	4 µg/mL (≈ 9.79 µM)	8 µg/mL	–	–	–
CCCN(C)Cc1ccc(-c2csc(-c3ccc(I)cc3)n2)cc1 [Example 6g, 2-(4′-iodophenyl)-4-[4″-(N-methyl-N-propylaminomethyl)phenyl]-thiazole]	8 µg/mL (≈ 17.8 µM)	4 µg/mL	4 µg/mL (≈ 8.92 µM)	4 µg/mL	8 µg/mL (≈ 17.8 µM)	4 µg/mL	4 µg/mL (≈ 8.92 µM)	2 µg/mL	–	–	–
CCCN(C)Cc1ccc(-c2csc(-c3ccc(OC)c([N+](=O)[O-])c3)n2)cc1 [Example 6k, 2-(4′-methoxy-3′-nitrophenyl)-4-[4″-(N-methyl-N-propylamino-methyl)phenyl]thiazole]	1 µg/mL (≈ 2.52 µM)	2 µg/mL	1 µg/mL (≈ 2.52 µM)	1 µg/mL	1 µg/mL (≈ 2.52 µM)	2 µg/mL	0.5 µg/mL (≈ 1.26 µM)	2 µg/mL	–	–	–
COc1ccc(-c2nc(-c3ccc(CN(C)C)cc3)cs2)cc1[N+](=O)[O-] [Example 6l, 2-(4′-methoxy-3′-nitrophenyl)-4-[4″-(dimethylaminomethyl)phenyl]thiazole]	0.5 µg/mL (≈ 1.35 µM)	1 µg/mL	0.25 µg/mL (≈ 0.677 µM)	0.5 µg/mL	0.25 µg/mL (≈ 0.677 µM)	1 µg/mL	0.25 µg/mL (≈ 0.677 µM)	0.5 µg/mL	–	–	–
CN(C)Cc1ccc(-c2csc(-c3cccc(C#N)c3)n2)cc1 [Example 6o, 2-(3′-cyanophenyl)-4-[4″-(dimethylaminomethyl)phenyl]thiazole]	2 µg/mL (≈ 6.26 µM)	4 µg/mL	8 µg/mL (≈ 25 µM)	16 µg/mL	2 µg/mL (≈ 6.26 µM)	>64 µg/mL	2 µg/mL (≈ 6.26 µM)	8 µg/mL	–	–	–
CCCN(C)Cc1ccc(-c2csc(-c3ccc(C)c([N+](=O)[O-])c3)n2)cc1 [Example 6p, 2-(4′-methyl-3′-nitrophenyl)-4-[4″-(N-methyl-N-propylaminomethyl)-phenyl]thiazole]	1 µg/mL (≈ 2.62 µM)	8 µg/mL	1 µg/mL (≈ 2.62 µM)	4 µg/mL	2 µg/mL (≈ 5.24 µM)	16 µg/mL	1 µg/mL (≈ 2.62 µM)	4 µg/mL	–	–	–
COc1ccc(-c2nnc(-c3ccc(CN(C)C)cc3)o2)cc1 [Example 9j, 2-(4′-methoxyphenyl)-5-[4″-(dimethylaminomethyl)phenyl]-1,3,4-oxadiazole]	4 µg/mL (≈ 12.9 µM)	32 µg/mL	0.25 µg/mL (≈ 0.808 µM)	8 µg/mL	0.5 µg/mL (≈ 1.62 µM)	0.5 µg/mL	8 µg/mL (≈ 25.9 µM)	8 µg/mL	–	–	–
OC(Cn1cncn1)(Cn1cncn1)c1ccc(F)cc1F [Fluconazole, reference compound]	0.5 µg/mL (≈ 1.63 µM)	>64 µg/mL	0.5 µg/mL (≈ 1.63 µM)	>64 µg/mL	–	>64 µg/mL	1.0 µg/mL (≈ 3.27 µM)	>64 µg/mL	0.25 µg/mL (≈ 0.816 µM)	1 µg/mL (≈ 3.27 µM)	0.5 µg/mL (≈ 1.63 µM)
